Patent publication US20250057426A1, “COMPUTER-IMPLEMENTED METHODS AND ASSOCIATED SYSTEMS FOR DETECTING MALIGNANCY” (The Trustees of the University of Pennsylvania, priority 2021, published 2025)

System: pulmonary lesions
Assay: Tumor-to-background ratio (TBR) during OTL38-based intraoperative molecular imaging (IMI)-guided lung resection
Assay type: in vivo, patients
Settings: OTL38 0.025 mg/kg infused up to 24 h prior to surgery
Description: Appropriate authorization was obtained from the University of Pennsylvania Perelman School of Medicine Institutional Review Board prior to data collection. Data was retrospectively analyzed from a prospectively collected database. Surgical procedures were performed by the surgeons at the Department of Thoracic Surgery at the Hospital of the University of Pennsylvania. A total of 279 patients were included in the study. All patients enrolled in the study presented with suspicious pulmonary nodules in conjunction with the recommendations from the Fleischner Society Guidelines for Pulmonary Nodules based on high-quality 1 mm slice thickness CT scanning. Based on institutional practice patterns, pre-operative tissue sampling and diagnosis was not mandatory. Selected patients underwent appropriate pre-operative clearance and metastatic disease work up prior to operative scheduling with video-assisted thoracoscopic surgical (VATS) lobectomy being the procedure of choice.
Analyzed patients underwent infusion of the study drug OTL38 (0.025 mg/kg) up to 24 h prior to surgery. OTL38 (C61H63N9Na4O17S4, MW: 1414.42) is a folate analog conjugated to the NIR dye, S0456. OTL38 excites at 774-776 nm and emits at 794-796 nm. […] The iridium system utilizes an excitation laser with a wavelength of 805 nm, with fluorescence detection based on a bandpass filter selective to light ranging from 825 to 850 nm. […]
Postoperatively, all the IMI images were uploaded to the deidentified secure database for analysis. Mean fluorescence intensity of the tumors was calculated from ImageJ (from National Institutes of Health) software with minimum 1000 pixels being included in the analysis. To minimize inter-observer bias, a protocol was established where the in situ and ex vivo TBRs were calculated by three blinded independent observers. Results were re-calculated by different observers if at least two blinded observer TBR measurements were not correlating (TBR values ±0.2 from each other). TBR results were then compared to final pathological diagnosis and analyzed for their correlation with in situ fluorescence. […]

CC1(C)C(/C=C/C2=C(Oc3ccc(C[C@H](NC(=O)c4ccc(NCc5cnc6nc(N)[nH]c(=O)c6n5)cc4)C(=O)[O-])cc3)C(=C/C=C3\N(CCCCS(=O)(=O)[O-])c4ccc(S(=O)(=O)[O-])cc4C3(C)C)/CCC2)=[N+](CCCCS(=O)(=O)[O-])c2ccc(S(=O)(=O)[O-])cc21.[H+].[H+].[H+].[H+] [OTL38]
In situ TBR, mean (entire cohort of 279 patients, Iridium NIR imaging, ImageJ): 2.84
Ex vivo TBR bisected tumor, mean (entire cohort, bisected specimen, 0.025 mg/kg): 4
Ex vivo TBR (back table), mean (entire cohort, resected specimen): 3.09
